Where a name gives a salt, the structure may show the parent alone. Read-outs that look alike come from different tables or passages of the source.
Experiments:
[1] = molecular target: FGFR3 (Homo sapiens (Human), UniProt P22607); assay: FGFR3 in vitro kinase inhibitory activity assay (TRF)
[2] = tested on: parental wild-type Ba/F3 cells; assay: Ba/F3 (WT) cell proliferation assay (Alamar Blue); format: cell-based; settings: Mus musculus; for IC50: 72 hours, Alamar Blue, read-out: BaF3 WT prolif
[3] = molecular target: VEGFR2 (Homo sapiens (Human), UniProt P35968); assay: VEGFR2 in vitro kinase inhibitory activity assay (TRF, Flt3 substrate); format: biochemical
Sequence of VEGFR2 (P35968 20-1356): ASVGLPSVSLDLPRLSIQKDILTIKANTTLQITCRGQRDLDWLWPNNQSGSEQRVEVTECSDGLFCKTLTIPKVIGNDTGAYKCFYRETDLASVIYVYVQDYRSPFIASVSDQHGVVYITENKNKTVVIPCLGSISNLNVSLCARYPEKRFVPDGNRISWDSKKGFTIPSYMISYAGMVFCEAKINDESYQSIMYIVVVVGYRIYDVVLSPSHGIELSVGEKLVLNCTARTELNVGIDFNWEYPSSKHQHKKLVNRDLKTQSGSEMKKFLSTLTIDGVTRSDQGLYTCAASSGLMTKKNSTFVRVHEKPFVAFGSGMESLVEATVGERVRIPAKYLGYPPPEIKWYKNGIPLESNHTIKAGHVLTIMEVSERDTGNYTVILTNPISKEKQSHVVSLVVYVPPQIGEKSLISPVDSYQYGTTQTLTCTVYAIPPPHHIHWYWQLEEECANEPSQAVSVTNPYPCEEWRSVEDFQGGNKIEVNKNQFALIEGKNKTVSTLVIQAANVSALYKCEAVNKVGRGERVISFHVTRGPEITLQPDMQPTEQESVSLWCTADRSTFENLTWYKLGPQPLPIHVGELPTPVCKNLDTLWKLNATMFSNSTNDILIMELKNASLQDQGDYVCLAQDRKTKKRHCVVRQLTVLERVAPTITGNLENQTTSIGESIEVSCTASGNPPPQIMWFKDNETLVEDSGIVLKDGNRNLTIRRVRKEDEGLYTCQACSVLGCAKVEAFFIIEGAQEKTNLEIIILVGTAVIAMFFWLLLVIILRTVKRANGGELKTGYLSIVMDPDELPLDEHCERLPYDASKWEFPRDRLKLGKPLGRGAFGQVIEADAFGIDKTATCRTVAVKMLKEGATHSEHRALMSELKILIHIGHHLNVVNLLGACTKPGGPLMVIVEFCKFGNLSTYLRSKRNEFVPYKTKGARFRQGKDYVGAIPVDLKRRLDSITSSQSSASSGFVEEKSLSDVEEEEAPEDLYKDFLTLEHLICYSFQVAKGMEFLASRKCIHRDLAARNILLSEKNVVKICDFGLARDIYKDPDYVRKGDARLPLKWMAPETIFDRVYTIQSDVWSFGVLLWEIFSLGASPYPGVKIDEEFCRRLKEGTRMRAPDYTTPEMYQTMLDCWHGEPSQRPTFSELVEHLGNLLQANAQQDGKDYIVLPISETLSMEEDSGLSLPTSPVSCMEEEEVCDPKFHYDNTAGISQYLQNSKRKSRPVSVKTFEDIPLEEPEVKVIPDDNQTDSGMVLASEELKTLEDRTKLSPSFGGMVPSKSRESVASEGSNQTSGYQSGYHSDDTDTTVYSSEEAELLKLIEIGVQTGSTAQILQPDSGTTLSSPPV

[4] = tested on: Ba/F3-TEL-FGFR3 cells; assay: Ba/F3-TEL-FGFR3 cell proliferation assay (Alamar Blue); format: cell-based; settings: for IC50: 72 hours, Alamar Blue, read-out: BaF3-TEL-FGFR3 prolif
[5] = tested on: LP-1 cell line (FGF-1/Heparin induced pERK); assay: Cell-based pERK ELISA, LP-1 cells; settings: Homo sapiens, LP-1, read-out: LP-1 pERK ELISA (μM)
[6] = BaF3, read-out: BaF3 WT prolif, % inhibition
[7] = BaF3, at 10 μM, read-out: BaF3 WT prolif, % inhibition

Sequence of FGFR3 (P22607 23-806): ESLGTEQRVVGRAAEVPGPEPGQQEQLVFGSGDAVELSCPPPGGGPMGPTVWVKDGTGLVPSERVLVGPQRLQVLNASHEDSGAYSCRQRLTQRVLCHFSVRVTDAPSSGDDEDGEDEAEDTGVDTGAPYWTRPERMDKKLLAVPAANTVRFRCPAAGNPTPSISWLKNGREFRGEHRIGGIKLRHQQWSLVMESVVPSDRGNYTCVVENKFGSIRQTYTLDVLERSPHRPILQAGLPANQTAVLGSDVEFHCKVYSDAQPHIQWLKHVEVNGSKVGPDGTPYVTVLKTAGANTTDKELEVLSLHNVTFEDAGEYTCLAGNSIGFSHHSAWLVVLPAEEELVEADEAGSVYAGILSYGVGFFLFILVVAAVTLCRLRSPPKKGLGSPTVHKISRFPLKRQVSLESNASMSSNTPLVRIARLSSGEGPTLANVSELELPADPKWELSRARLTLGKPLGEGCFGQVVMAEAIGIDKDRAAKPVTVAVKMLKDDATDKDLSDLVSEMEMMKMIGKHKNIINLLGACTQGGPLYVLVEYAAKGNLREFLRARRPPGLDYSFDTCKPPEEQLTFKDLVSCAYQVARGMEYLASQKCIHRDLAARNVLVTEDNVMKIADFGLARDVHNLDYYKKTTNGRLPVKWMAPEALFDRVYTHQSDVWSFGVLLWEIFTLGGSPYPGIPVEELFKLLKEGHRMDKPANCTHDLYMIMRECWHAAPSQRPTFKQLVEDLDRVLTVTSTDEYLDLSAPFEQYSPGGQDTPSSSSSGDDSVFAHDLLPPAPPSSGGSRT

| SMILES | IC50 ([2]; BaF3) | inhibition at 0.0003 µM ([1]; 3 h, read-out: FGFR3 % I) | IC50 [4] | IC50 [5] | other results |
| --- | --- | --- | --- | --- | --- |
| Nc1nc(-c2ccn3c(-c4cc(NC(=O)NCC(F)(F)F)cc(OC5CCCC5)c4)cnc3c2)ncc1F [Compound 281] | 1400 nM | – | – | – | inhibition at 0.1 µM ([1]; 3 h, read-out: FGFR3 % I): 42% |
| Cc1ccc(NC(=O)NCC(F)(F)F)cc1-c1cnc2cc(-c3ncc(F)c(N)n3)ccn12 [Compound 283] | – | – | – | – | IC50 ([1]; read-out: FGFR3 IC50, […]): > 1000 nM; IC50 [3]: > 10000 nM |
| CCNc1nnc(-c2ccn3c(-c4cccc(NC(=O)NCC(F)(F)F)c4)cnc3c2)s1 [Compound 286] | – | 57% | – | – | inhibition at 3 µM ([4]; read-out: BaF3-TEL-FGFR3 prolif, % inhibition): 55%; inhibition at 10 µM [2, 6]: 0% |
| COCCNc1nnc(-c2ccn3c(-c4cccc(NC(=O)NCC(F)(F)F)c4)cnc3c2)s1 [Compound 288] | – | 54% | 35 nM | – | inhibition at 10 µM [2, 6]: 7.8% |
| COc1cc(NC(=O)NCC(F)(F)F)cc(-c2cnc3cc(-c4ncccn4)ccn23)c1 [Compound 304] | – | – | – | – | inhibition at 0.1 µM ([1]; 3 h, read-out: FGFR3 % I): 55%; inhibition at 3 µM ([3]; 1 h, read-out: VEGFR2 % I): 59% |
| COC(=O)c1cc(NC(=O)NCC(F)(F)F)cc(-c2cnc3cc(-c4ccnc(C(F)(F)F)n4)ccn23)c1 [Compound 307] | – | – | – | – | inhibition at 10 µM ([4]; at 10 μM, read-out: BaF3-TEL-FGFR3 prolif, % inhibition): 25%; inhibition at 0.03 µM ([1]; 3 h, read-out: FGFR3 % I): 39%; inhibition at 10 µM [2, 7]: 0%; inhibition at 1 µM ([3]; 1 h, at 1 μM, read-out: VEGFR2 % I): 58% |
| N#CCc1cc(NC(=O)NCC(F)(F)F)cc(-c2cnc3cc(-c4ccnc(C(F)(F)F)n4)ccn23)c1 [Compound 310] | – | – | – | – | inhibition at 0.3 µM ([1]; 3 h, read-out: FGFR3 % I): 36%; IC50 [3]: > 3000 nM |
| CC(C)(O)c1ccc(-c2ccn3c(-c4cccc(NC(=O)NCC(F)(F)F)c4)cnc3c2)cc1 [Compound 321] | 460 nM | 36% | 21 nM | – | – |
| NC1CCN(c2ccc(-c3ccn4c(-c5cccc(NC(=O)NCC(F)(F)F)c5)cnc4c3)cn2)CC1 [Compound 330] | 560 nM | – | 27 nM | – | inhibition at 0.00097 µM ([1]; 3 h, read-out: FGFR3 % I): 66% |
| CCCCCOC(=O)Nc1nc(-c2ccn3c(-c4cccc(NC(=O)NCC(F)(F)F)c4)cnc3c2)ncc1F [Compound 331] | – | – | 1600 nM | – | inhibition at 0.03 µM ([1]; 3 h, read-out: FGFR3 % I): 42%; inhibition at 10 µM [2, 7]: 60%; inhibition at 3 µM ([3]; 1 h, read-out: VEGFR2 % I): 43% |
| CC(C)(CO)n1cc(-c2ccn3c(-c4cccc(NC(=O)NCC(F)(F)F)c4)cnc3c2)cn1 [Example 10, 1-(3-{7-[1-(2-Hydroxy-1,1-dimethylethyl)-1H-pyrazol-4-yl]-imidazo[1,2-a]pyridin-3-yl}phenyl)-3-(2,2,2-trifluoroethyl)urea] | 2300 nM | – | 300 nM | 0.047 µM | inhibition at 0.001 µM ([1]; 3 h, read-out: FGFR3 % I): 50% |
| O=C(NCC(F)(F)F)Nc1cccc(-c2cnc3cc(-c4ccc(N5CCNCC5)nn4)ccn23)c1 [Example 23, 1-{3-[7-(6-Piperazin-1-ylpyridazin-3-yl)-imidazo[1,2-a]pyridin-3-yl]phenyl}-3-(2,2,2-trifluoroethyl)urea trifluoroacetate] | – | – | 420 nM | 0.63 µM | inhibition at 0.001 µM ([1]; 3 h, read-out: FGFR3 % I): 58%; inhibition at 10 µM [2, 7]: 0% |
| CN1CCCC(n2cc(-c3ccn4c(-c5cccc(NC(=O)NCC(F)(F)F)c5)cnc4c3)cn2)C1 (centres unmarked) [Example 38, 1-(3-{7-[1-(1-Methylpiperidin-3-yl)-1H-pyrazol-4-yl]imidazo[1,2-a]pyridin-3-yl]phenyl)-3-(2,2,2-trifluoroethyl)urea hydrochloride] | 440 nM | – | 22 nM | 0.0086 µM | – |
| CCN1CCC(n2cc(-c3ccn4c(-c5cccc(NC(=O)NCC(F)(F)F)c5)cnc4c3)cn2)C1 (centres unmarked) [Example 44, 1-(3-{7-[1-(1-Ethyl-pyrrolidin-3-yl)-1H-pyrazol-4-yl)-imidazo[1,2-a]pyridin-3-yl}-phenyl)-3-(2,2,2-trifluoro-ethyl)-urea] | 900 nM | – | 45 nM | 0.022 µM | – |
| CC(C)N1CCC(n2cc(-c3ccn4c(-c5cccc(NC(=O)NCC(F)(F)F)c5)cnc4c3)cn2)CC1 [Example 50, 1-(3-{7-[1-(1-Isopropylpiperidin-4-yl)-1H-pyrazol-4-yl]imidazo[1,2-a]pyridin-3-yl}-phenyl)-3-(2,2,2-trifluoroethyl)urea hydrochloride] | 710 nM | 39% | 29 nM | 0.021 µM | – |
| CC(C)(C)OC(=O)N1CCC(n2cc(-c3ccn4c(-c5cncc(NC(=O)NCC(F)(F)F)c5)cnc4c3)cn2)CC1 [Example 55, 4-[4-(3-{5-[3-(2,2,2-Trifluoro-ethyl)-ureido]-pyridin-3-yl}-imidazo[1,2-a]pyridin-7-yl)-pyrazol-1-yl]-piperidine-1-carboxylic acid tert-butyl ester] | – | 38% | – | – | – |
